# Measured values published in US10517889B2, “Modulators of SMAD7 expression” (Ionis Pharmaceuticals, Inc., priority 2017, dated 2019).
# Strand notation (5' to 3'): a small letter for the sugar, then the base; units joined by * are phosphorothioate-linked, units joined directly phosphodiester-linked; [ ] holds rarer units or linkages, { } end groups; capitals alone tell only the bases. k = constrained ethyl (cEt); [5mC] = 5-methylcytosine; d = 2'-deoxy (DNA)
# System: human SMAD7 mRNA
# Test: Antisense inhibition of human SMAD7 mRNA expression in Hep3B cells by 3-10-3 cEt gapmers, 10,000 nM, electroporation (Example 2)
# Format: cell-based
# Conditions: Hep3B cells, 10,000 nM antisense oligonucleotide, electroporation, approximately 24 hours, RT-PCR primer probe set RTS5062, relative to untreated control cells
# Protocol: Antisense oligonucleotides were designed to target human SMAD7 mRNA and were tested for their effects on SMAD7 mRNA expression in vitro. The antisense oligonucleotides were tested in a series of experiments that had similar culture conditions, as described below. ION 771576, described in the studies above and which is a 5-10-5 MOE gapmer, was also included in these assays. Cultured Hep3B cells at a density of 20,000 cells per well were transfected using electroporation with 10,000 nM antisense oligonucleotide. After a treatment period of approximately 24 hours, RNA was isolated from the cells and SMAD7 mRNA levels were measured by quantitative real-time PCR. Primer probe set RTS5062 was used to measure human SMAD7 mRNA levels. SMAD7 mRNA levels were adjusted according to total RNA content, as measured by RIBOGREEN®. Results are presented as percent inhibition of SMAD7 mRNA expression, relative to untreated control cells.
# The newly designed chimeric antisense oligonucleotides in the Tables below were designed as 3-10-3 cEt gapmers. The gapmers are 16 nucleosides in length, wherein the central gap segment comprises often 2′-deoxynucleosides and is flanked by wing segments on the 5′ direction and the 3′ direction comprising three nucleosides each. Each nucleoside in the 5′ wing segment and each nucleoside in the 3′ wing segment has a cEt sugar modification. The internucleoside linkages throughout each gapmer are phosphorothioate (P═S) linkages. All cytosine residues throughout each gapmer are 5-methylcytosines.
# “Start site” indicates the 5′-most nucleoside to which the gapmer is targeted in the human gene sequence. “Stop site” indicates the 3′-most nucleoside to which the gapmer is targeted human gene sequence. […] Some of the oligonucleotides presented were complementary to SMAD7 mRNA sequences RefSeqNo. NM_001190821.1 (designated herein as SEQ ID NO: 3) or RefSeqNo. NM_001190822.1 (designated herein as SEQ ID NO: 4), and are presented in a separate table shown below.
row,Substance,% Inhibition [%]
1,790513 (k[5mC]*kA*k[5mC]*d[5mC]*dA*dG*d[5mC]*dT*dG*dA*d[5mC]*dT*d[5mC]*kT*kT*kG; antisense) [compound 790513],10
2,790531 (kT*kG*k[5mC]*dT*dG*dA*dT*dG*dA*dA*d[5mC]*dT*dG*kG*k[5mC]*kG; antisense) [compound 790531],8
3,790533 (kG*kG*k[5mC]*dT*dA*d[5mC]*d[5mC]*dG*dG*d[5mC]*dT*dG*dT*kT*kG*kA; antisense) [compound 790533],16

# Same assay, conditions: Hep3B cells, electroporation with 10,000 nM antisense oligonucleotide, approximately 24 hours, RTS5062, percent inhibition of SMAD7 mRNA relative to untreated control cells
row,Substance,% Inhibition [%]
1,790714 (kA*kG*k[5mC]*d[5mC]*dA*dG*dT*dT*dA*dA*dT*d[5mC]*dA*kT*kT*kA; antisense) [compound 790714],11

# Same assay, conditions: Hep3B cells, electroporation with 10,000 nM antisense oligonucleotide, approximately 24 hours, SMAD7 mRNA by RT-PCR (RTS5062), relative to untreated control cells
row,Substance,% Inhibition [%]
1,790510 (k[5mC]*k[5mC]*k[5mC]*d[5mC]*dT*dG*dA*dG*dG*dT*dA*dG*dA*kT*k[5mC]*kA; antisense) [compound 790510],33
2,790515 (k[5mC]*kG*kT*d[5mC]*dA*dG*d[5mC]*dT*dG*dG*dA*dT*dG*k[5mC]*k[5mC]*kG; antisense) [compound 790515],26
3,790532 (kG*k[5mC]*kA*d[5mC]*dG*dG*dG*d[5mC]*dA*dG*d[5mC]*dT*dG*k[5mC]*kT*kG; antisense) [compound 790532],0
4,790680 (kG*kG*kT*dG*dA*dG*dT*dA*dA*d[5mC]*d[5mC]*dA*dG*k[5mC]*kT*kG; antisense) [compound 790680],56

# Same assay, conditions: Hep3B cells, electroporation with 10,000 nM antisense oligonucleotide, approximately 24 hours, primer probe set RTS5062, relative to untreated control cells
Substance,% Inhibition [%],% inhibition of SMAD7 mRNA expression [%]
790543 (kT*kG*kA*dA*dA*dA*dG*d[5mC]*dA*dA*dG*d[5mC]*dA*k[5mC]*kT*k[5mC]; antisense) [compound 790543],23,–
790545 (kA*kA*kA*dG*dA*dG*dT*dT*dT*dG*d[5mC]*dA*dT*kG*kA*kA; antisense) [compound 790545],24,–
790613 (k[5mC]*kA*kT*dT*dT*dA*dA*dA*d[5mC]*d[5mC]*dT*dT*dT*kG*kT*kA; antisense) [compound 790613],–,0
790617 (k[5mC]*kT*kA*d[5mC]*dA*dA*dT*dG*d[5mC]*dT*dA*dA*dA*kT*kT*kT; antisense) [compound 790617],0,–
790620 (kT*kA*kA*dT*dA*dA*dA*dT*d[5mC]*dT*d[5mC]*dA*dG*kG*kT*kT; antisense) [compound 790620],30,–
790621 (kG*kT*kG*d[5mC]*dA*dT*d[5mC]*dT*dT*dT*dT*d[5mC]*dT*kT*kT*kA; antisense) [compound 790621],–,0
790623 (kG*k[5mC]*kA*dT*dT*dT*dA*dT*dA*dT*dT*dA*dA*kA*kG*k[5mC]; antisense) [compound 790623],–,0
790626 (kG*kA*kT*dA*dA*d[5mC]*dA*d[5mC]*d[5mC]*d[5mC]*dA*dT*dA*kG*kA*kA; antisense) [compound 790626],–,0
790630 (kG*kG*kA*dA*d[5mC]*dA*dT*dA*dA*dA*d[5mC]*dT*d[5mC]*k[5mC]*kT*kT; antisense) [compound 790630],0,–
790631 (kG*kT*kT*dT*dA*dA*dT*dG*dG*dA*dA*d[5mC]*dA*kT*kA*kA; antisense) [compound 790631],0,–
790655 (k[5mC]*kG*kT*dG*dT*dT*dA*dA*dA*dG*d[5mC]*dT*dG*kA*kG*k[5mC]; antisense) [compound 790655],–,42
790695 (kT*kG*kA*dA*dA*dT*dG*dG*dT*dG*d[5mC]*dT*d[5mC]*kT*kG*k[5mC]; antisense) [compound 790695],–,62

# Same assay, conditions: Hep3B cells, electroporation, 10,000 nM antisense oligonucleotide, approximately 24 hours, RTS5062, relative to untreated control cells
row,Substance,% inhibition of SMAD7 mRNA expression [%]
1,790710 (kG*kG*kG*dA*dA*dA*dT*dG*dT*dT*d[5mC]*dT*dA*k[5mC]*k[5mC]*kT; antisense) [compound 790710],15

# Same assay, conditions: Hep3B cells, electroporation, 10,000 nM, approximately 24 hours; 3-10-3 cEt gapmers targeting SEQ ID NO: 3 and 4
row,Substance,% inhibition of SMAD7 mRNA expression [%]
1,790634 (kA*kG*kT*d[5mC]*dA*dG*dT*dT*dG*dG*dT*dT*dT*kG*kA*kG; antisense) [compound 790634],0
2,790635 (kG*kG*kA*d[5mC]*dA*dG*dT*d[5mC]*dA*dG*dT*dT*dG*kG*kT*kT; antisense) [compound 790635],40

# Same assay, conditions: SMAD7 mRNA, Hep3B cells, 10,000 nM antisense oligonucleotide, electroporation, approximately 24 hours, primer probe set RTS5062, relative to untreated control cells
row,Substance,% Inhibition [%]
1,790508 (k[5mC]*kA*k[5mC]*d[5mC]*dA*d[5mC]*dG*d[5mC]*dA*d[5mC]*d[5mC]*dA*dG*kT*kG*kT; antisense) [compound 790508],0
2,790516 (kG*kT*kA*dA*d[5mC]*dT*dG*d[5mC]*dT*dG*d[5mC]*dG*dG*kT*kT*kG; antisense) [compound 790516],45
3,790519 (k[5mC]*kT*kG*dG*dA*dG*dT*d[5mC]*d[5mC]*dG*dG*dG*dT*kT*kG*kT; antisense) [compound 790519],8
4,790521 (kG*kG*k[5mC]*dT*dG*dT*dA*d[5mC]*dG*d[5mC]*d[5mC]*dT*dT*k[5mC]*kT*k[5mC]; antisense) [compound 790521],19
5,790529 (kA*kG*k[5mC]*dT*dG*dA*dT*d[5mC]*dT*dG*d[5mC]*dA*d[5mC]*kG*kG*kT; antisense) [compound 790529],65
6,790537 (kA*kG*k[5mC]*dA*dG*d[5mC]*dA*dA*dA*dG*dT*dA*dG*kT*kT*kT; antisense) [compound 790537],27
7,790604 (kT*kA*k[5mC]*dG*dA*dG*dT*dG*dT*dA*dT*dG*dA*kG*kT*kT; antisense) [compound 790604],30
8,790605 (kA*kT*k[5mC]*dA*dT*dA*d[5mC]*dG*dA*dG*dT*dG*dT*kA*kT*kG; antisense) [compound 790605],32
9,790609 (kG*kT*k[5mC]*dT*dA*dA*dA*d[5mC]*dA*dT*dG*d[5mC]*dT*k[5mC]*kA*kT; antisense) [compound 790609],40
10,790611 (kG*k[5mC]*kT*dT*dA*dT*dG*dT*dT*dA*dA*dA*dG*kT*k[5mC]*kT; antisense) [compound 790611],59
11,790612 (kT*kA*kA*dA*d[5mC]*d[5mC]*dT*dT*dT*dG*dT*dA*dG*kT*kT*kA; antisense) [compound 790612],64
12,790618 (kA*kG*k[5mC]*dA*d[5mC]*dT*dA*d[5mC]*dA*dA*dT*dG*d[5mC]*kT*kA*kA; antisense) [compound 790618],24
13,790637 (kA*k[5mC]*k[5mC]*dT*dA*dG*dT*dT*d[5mC]*dG*d[5mC]*dA*dG*kA*kG*kT; antisense) [compound 790637],0
14,790647 (k[5mC]*kG*k[5mC]*dG*dA*dG*dG*d[5mC]*dG*dG*dT*dG*dA*kT*kT*kG; antisense) [compound 790647],24
15,790652 (k[5mC]*kA*k[5mC]*d[5mC]*dA*dG*dT*dT*dG*dG*dT*dT*dT*kG*kA*kG; antisense) [compound 790652],25
16,790659 (kT*kG*k[5mC]*d[5mC]*dA*dG*dT*d[5mC]*dT*d[5mC]*dA*dA*dA*kT*kG*kG; antisense) [compound 790659],27
17,790674 (kT*kG*k[5mC]*dT*dA*d[5mC]*d[5mC]*dT*dA*dA*dT*dG*dT*k[5mC]*kA*kA; antisense) [compound 790674],40
18,790678 (kT*k[5mC]*k[5mC]*dT*dA*dT*dT*dG*dG*d[5mC]*dT*dG*dA*kT*k[5mC]*kT; antisense) [compound 790678],46
19,790679 (kA*kG*kG*dT*dT*dA*dA*dT*d[5mC]*dA*d[5mC]*dT*dT*k[5mC]*k[5mC]*kT; antisense) [compound 790679],13
20,790693 (k[5mC]*kA*kA*dA*dG*dT*dA*dT*dA*d[5mC]*d[5mC]*dT*dG*kT*kT*k[5mC]; antisense) [compound 790693],45
21,790696 (k[5mC]*kA*kA*dA*dG*dG*dT*dA*dA*dG*d[5mC]*d[5mC]*dA*kG*k[5mC]*kT; antisense) [compound 790696],41
22,790697 (kA*kT*kT*d[5mC]*dA*dG*dG*dG*dT*dG*dT*d[5mC]*dA*kG*k[5mC]*k[5mC]; antisense) [compound 790697],59
23,790701 (kG*kG*kA*dT*dA*d[5mC]*dA*d[5mC]*dT*dT*dA*dA*dT*k[5mC]*kA*kA; antisense) [compound 790701],57
